Where a name gives a salt, the structure may show the parent alone.
Target: T1, recombinant human Itk kinase domain fused with GST (Homo sapiens, UniProt Q08881)
T1 construct: recombinant human Itk kinase domain fused with GST (Glutathione S-Transferase); GST (Glutathione S-Transferase); made in house; host or cells: High Five insect cells
T1 sequence (Q08881 363-615 limits assumed): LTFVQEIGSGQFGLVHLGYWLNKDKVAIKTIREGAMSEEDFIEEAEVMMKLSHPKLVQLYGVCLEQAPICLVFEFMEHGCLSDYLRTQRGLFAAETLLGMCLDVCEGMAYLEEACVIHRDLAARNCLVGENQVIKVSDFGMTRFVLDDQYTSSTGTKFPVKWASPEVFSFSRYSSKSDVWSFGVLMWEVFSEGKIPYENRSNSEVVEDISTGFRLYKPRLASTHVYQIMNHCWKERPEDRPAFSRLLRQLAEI
Experiment: Itk LANCE TRF Assay
Type: biochemical
Conditions: 2 μM biotinylated peptide substrate, 50 μM ATP, 50 minutes RT, read-out: Inhibition of Kinase Itk (IC50 μM)
Experimental: The Itk kinase assay utilized recombinant human Itk kinase domain fused with GST (Glutathione S-Transferase). The protein was expressed in High five insect cells, purified in one step on an affinity chromatography glutathione column and stored in 50 mM Tris/HCl (pH 7.6), 150 mM NaCl, 5% (w/v) mannitol, 1 mM DTT, 30% glycerol at −70° C. The kinase substrate used in the assay was a biotinylated peptide derived from the Src-optimal substrate (Nair et al, J. Med. Chem., 38: 4276, 1995; biotin-AEEEIYGEFEAKKKK).
The assay additions were as follows: Test compounds (or controls; 1 μL in 100% DMSO) were added to black 96-well flat-bottomed plates (Greiner 655076) followed by 20 μL Itk in assay buffer and the reaction was started by adding 20 μL ATP and peptide substrate in assay buffer. The assay buffer constitution during, phosphorylation was: 50 mM HEPES (pH 6.8), 10 mM MgCl2, 0.015% Brij 35, 1 mM DTT, 10% glycerol, 160 ng/well Itk, 2 μM peptide substrate and 50 μM ATP. The assay was stopped after 50 minutes (RT) by adding 150 μL ice-cold Stop solution (50 mM Tris/HCl, pH 7.5, 10 mM EDTA, 0.9% NaCl and 0.1% BSA) together with LANCE reagents (2 nM PT66-Eu^3+, Wallac AD0069 and 5 μg/mL Streptavidin-APC, Wallac AD0059. Both concentrations were final in stopped assay solution). The plates were measured on a Wallac 1420 Victor 2 instrument with TRF settings after 1 h incubation, and the ratio (665 signal/615 signal)*10000 was used to calculate the inhibition values. IC50 values were determined using XLfit.

Row | Compound | IC50
1 | Brc1cnc2[nH]c(-c3ccc(OCCNc4nccs4)cc3)nc2c1 [Example 104, N-{2-[4-(6-Bromo-3H-imidazo[4,5-b]pyridin-2-yl)phenoxy]ethyl}-1,3-thiazol-2-amine bis(trifluoroacetate)] | 0.24 µM
2 | OC1CCN(CC(O)COc2ccc(-c3nc4cc(Br)cnc4[nH]3)cc2)C1 (centres unmarked) [Example 124, 1-{3-[4-(6-Bromo-3H-imidazo[4,5-b]pyridin-2-yl)phenoxy]-2-hydroxypropyl}pyrrolidin-3-ol] | 0.43 µM
3 | COc1ccc(CNc2ccc(-c3nc4cc(Br)cnc4[nH]3)cc2)cc1 [Example 180, N-[4-(6-Bromo-3H-imidazo[4,5-b]pyridin-2-yl)phenyl]-N-(4-methoxybenzyl)amine bis(trifluoroacetate)] | 0.29 µM
4 | Cc1ccc(-c2c(Cl)cnc3[nH]c(-c4ccc(OCCN5CCOCC5)cc4)nc23)cc1 [Example 238, 6-Chloro-7-(4-methylphenyl)-2-[4-(2-morpholin-4-ylethoxy)phenyl]-3H-imidazo[4,5-b]pyridine] | 0.35 µM
5 | COc1ccc(S(=O)(=O)Nc2ccc(-c3nc4ncc(Cl)c(Cl)c4[nH]3)cc2)cc1 [Example 267, N-[4-(6,7-Dichloro-1H-imidazo[4,5-b]pyridin-2-yl)phenyl]-4-methoxybenzenesulfonamide] | 0.26 µM

More lines, now with the values ahead:

Row | IC50 | Compound
6 | 0.31 µM | COc1cc(-c2nc3cc(Br)cnc3[nH]2)ccc1OCc1ccccc1 [Example 29, 2-[4-(Benzyloxy)-3-methoxyphenyl]-6-bromo-3H-imidazo[4,5-b]pyridine trifluoroacetate]
7 | 0.53 µM | OCCN1CCN(CC(O)COc2ccc(-c3nc4cc(Br)cnc4[nH]3)cc2)CC1 (centres unmarked) [Example 162, 1-[4-(6-Bromo-3H-imidazo[4,5-b]pyridin-2-yl)phenoxy]-3-[4-(2-hydroxyethyl)piperazin-1-yl]propan-2-ol bis(trifluoroacetate)]
8 | 0.41 µM | Clc1cnc2[nH]c(-c3ccc(OCCN4CCOCC4)cc3)nc2c1N1CCCC1 [Example 236, 6-Chloro-2-[4-(2-morpholin-4-ylethoxy)phenyl]-7-pyrrolidin-1-yl-3H-imidazo[4,5-b]pyridine]

From US7410966B2, “Use of and some novel imidazopyridines” (AstraZeneca AB, priority 2002, dated 2008)
